In the NIST ThermoML archive (doi:10.1016/j.jct.2017.12.023):
± gives the expanded uncertainty stated by the source.

Assay: xn = mol fraction of the nth substance listed
Conditions: 100 kPa, Liquid; for viscosity: Concentric cylinders viscometry; for mass density: Vibrating tube method

CCOS(=O)(=O)[O-].CCn1cc[n+](C)c1 [1-ethyl-3-methylimidazolium ethyl sulfate] + CCCCCCO
Conditions	mass density, 308.15 K [kg/m3]	mass density, 313.15 K [kg/m3]	mass density, 318.15 K [kg/m3]	mass density, 323.15 K [kg/m3]	viscosity, 308.15 K [mPa·s]	viscosity, 313.15 K [mPa·s]	viscosity, 318.15 K [mPa·s]	viscosity, 323.15 K [mPa·s]
x1 = 0.1016	869.3 ± 1.5	865.72 ± 1.5	862.11 ± 1.5	858.5 ± 1.5	5.153 ± 0.056	4.475 ± 0.049	3.975 ± 0.044	3.566 ± 0.039
x1 = 0.2016	924.31 ± 1.5	920.76 ± 1.5	917.2 ± 1.5	913.65 ± 1.5	7.242 ± 0.079	6.296 ± 0.068	5.593 ± 0.061	4.959 ± 0.054
x1 = 0.3005	973.98 ± 1.5	970.44 ± 1.5	966.93 ± 1.5	963.42 ± 1.5	10.01 ± 0.11	8.67 ± 0.094	7.683 ± 0.083	6.841 ± 0.074
x1 = 0.3989	1019.25 ± 1.5	1015.75 ± 1.5	1012.26 ± 1.5	1008.79 ± 1.5	13.6 ± 0.15	11.7 ± 0.13	10.3 ± 0.11	9.127 ± 0.099
x1 = 0.4975	1060.99 ± 1.5	1057.52 ± 1.5	1054.07 ± 1.5	1050.64 ± 1.5	18.02 ± 0.19	15.4 ± 0.17	13.44 ± 0.14	11.85 ± 0.13
x1 = 0.5956	1099.3 ± 1.5	1095.87 ± 1.5	1092.45 ± 1.5	1089.05 ± 1.5	23.46 ± 0.25	19.84 ± 0.21	17.17 ± 0.18	14.98 ± 0.16
x1 = 0.6647	1124.65 ± 1.5	1121.24 ± 1.5	1117.84 ± 1.5	1114.46 ± 1.5	27.77 ± 0.3	23.34 ± 0.25	20.06 ± 0.22	17.41 ± 0.19
x1 = 0.7947	1168.81 ± 1.5	1165.42 ± 1.5	1162.05 ± 1.5	1158.7 ± 1.5	37.67 ± 0.4	31.23 ± 0.34	26.51 ± 0.28	22.64 ± 0.24
x1 = 0.897	1200.48 ± 1.5	1197.11 ± 1.5	1193.76 ± 1.5	1190.42 ± 1.5	46.51 ± 0.5	38.33 ± 0.41	32.18 ± 0.35	27.41 ± 0.29
x1 = 1	1229.49 ± 1.6	1226.13 ± 1.6	1222.79 ± 1.6	1219.46 ± 1.6	57.98 ± 0.61	47.26 ± 0.51	39.25 ± 0.42	32.94 ± 0.35
